US9592213B2, “Prophylactic and/or therapeutic agent for dysmenorrhea” (National University Corporation Kumamoto University, priority 2009, dated 2017)
“Also recorded” adds a separate entry of the source.

Assays:
[1] = Patient history: adverse effects of earlier drugs in study subjects; type: in vivo, human; conditions: Subject I, administration from Mar. 18, 2010
[2] = test system: Immortalized human retinal pigment epithelial cell line ARPE-19; test: Example B1: transition of cell morphology from mesenchymal form to epithelial form after TGFβ2 and TNFα; type: cell-based; conditions: tranilast 1 μg/ml added 48 hours after TGFβ2 5 ng/ml and TNFα 100 ng/ml, read after 96 hours
Experimental: Immortalized human retinal pigment epithelial cell line ARPE-19 (ATCC No.: CRL-2302) was disseminated into a 96-well glass plate (EZView Culture Plate, LB Cover Glass Bottom, 96 wells, Iwaki) at 1×10^4 cells/well followed by culturing at 37° C. in a 5% CO2 environment. After 5 days, 150 μl aliquots each of DMEM-F12 (serum-free, Sigma-Aldrich) medium supplemented by 5 ng/ml of TGFβ2 and 100 ng/ml of TNFα were prepared and used to replace the original medium in the wells and cultured at 37° C. in a 5% CO2 environment.
After 48 hours, the plate was removed from the incubator followed by the addition of tranilast (1 μg/ml) and culturing at 37° C. in a 5% CO2 environment. After 96 hours, the plate was washed with PBS and the cells were fixed for 30 minutes with 4% paraformaldehyde (Wako), and after washing with PBS, were stained for 1 hour with F-actin (Alexa Fluor 568 Phalloidin, Invitrogen) and nuclei (Hoechst 33342, Invitrogen) followed by washing with PBS and then immediately photographing using a fluorescence microscope (Keyence) at a magnification factor of 40×.

[3] = cited from earlier work
[4] = Clinical study of therapeutic effect of oral administration of tranilast in dysmenorrhea patients; type: in vivo, human
Experimental: Subject A was given 100 mg of tranilast three times a day by oral administration (300 mg per day, divided three times daily) daily for about six months starting on Sep. 1, 2008.
Menstrual pain was measured according to a numerical rating scale (NRS). In the NRS, the patient was asked to evaluate and record the degree of pain by themself by judging the degree of pain according to 11 levels ranging from level 0 indicating the absence of pain to level 10 indicating maximum pain. Menstrual blood loss was evaluated according to 5 levels ranging from level 0 indicating the absence of blood loss up to level 4 as blood loss increased.
The term “average” in the graphs indicates a value obtained by dividing the total sum of the pain level for each menstrual period by the number of days on which pain was felt.
The term “max” indicates a value of the day when the most intense pain was felt during each menstrual period.
Pain during menstruation was evaluated by the record made for each day by the patient according the 11 levels from level 0 indicating the absence of pain to level 10 indicating maximum pain in the same manner as Subjects A and B, using the NRS method.
The average values and maximum values of NRS scores indicating the intensity of pain during each menstrual period were derived, and the values were compared between the menstrual period at the start of administration and the last menstrual period during the administration period as shown in graphs of FIGS. 8A and 9A. In addition, the degrees of decrease in average values and maximum values for menstrual pain during the last menstrual period relative to the first menstrual period at the start of administration were represented as improvement rates, and are shown in FIGS. 8B and 9B.
Moreover, Subjects A, C, D, E, F and G, but excluding Subject B, underwent examinations at the facility conducting the clinical study at roughly one month intervals during the administration period, and were interviewed by a specialist in the department of gynecology. Interview findings before the start of administration and interview findings at the time of their final visit were compared and are shown in FIG. 10.

EM-E6/E7/hTERT cells = test: Example B2: western blotting of fibronectin and N-cadherin expression in endometrial epithelial cells; type: cell-based; conditions: tranilast 320 μM, 80 μM, 20 μM with TGFβ2 5 ng/ml, TNFα 100 ng/ml or both, 48 hours
Experimental: Cell line EM-E6/E7/hTERT cells (EM) derived from endometrial epithelium were disseminated in a 6-well glass plate (EZView Culture Plate, LB Cover Glass Bottom, 6 wells, Iwaki) at 1×10^5 cells/well, followed by culturing for 2 days at 37° C. in an environment having a carbon dioxide concentration of 5% in DMEM/F12 medium and in the presence of 10% serum, and then culturing for 3 days after replacing the medium with serum-free DMEM/F12 medium.
Subsequently, tranilast (320 μM, 80 μM, 20 μM) was added to medium containing TGFβ2 at 5 ng/ml, TNFα at 100 ng/ml or both followed by replacing the medium. Protein was recovered 48 hours after having replaced the medium with the medium containing TGFβ2 or TNFα, and expression levels of fibronectin and N-cadherin were compared by western blotting.
Anti-fibronectin antibody (clone ID: F14, Epitomics) and anti-N-cadherin antibody (clone ID: 32/N-cadherin, BD Transduction Laboratories) were used for the antibodies.

[5] = continuous infusion for 3.5 days at 7.5 mg/kg, normal adult; cited from earlier work
[6] = Subject A, organic dysmenorrhea, 100 mg three times a day orally, about six months
[7] = Subject B, August menstrual period, 100 mg/day
[8] = Subject B, September menstrual period, 200 mg/day
[9] = Subject B, after start of administration
[10] = Subject B, functional dysmenorrhea, 100-200 mg/day orally, about six months

For C[C@]12CCC3=C4CCC(=O)C=C4CC[C@H]3[C@@H]1CC[C@@]2(O)CC#N [dienogest], which “adverse effect in patient history leading to discontinuation” value [1] is on record?
The value was “persistent abnormal genital bleeding”.

With COc1ccc(C=CC(=O)Nc2ccccc2C(=O)O)cc1OC [Tranilast, N-(3,4-dimethoxycinnamoyl) anthranilic acid] as the compound, how does the cell morphology [2] read?
Its cell morphology is “exhibited an epithelial form”.

And the “foci formed after TGFβ2 and TNFα” value [2]?
The value was “alleviated”.

What about the “solubility in 1,4-dioxane” value ([3]; 1,4-dioxane) of the same compound?
Its value is “soluble”.

What about the “solubility in N,N-dimethylformamide” value ([3]; N,N-dimethylformamide) of the same compound?
Its value is “freely soluble”.

What about the “solubility in diethyl ether” value ([3]; diethyl ether) of the same compound?
The value was “very slightly soluble”.

What about the solubility in ethanol ([3]; ethanol) of the same compound?
Its solubility in ethanol is “slightly soluble”.

And the solubility in water ([3]; water)?
Its solubility in water is “practically insoluble”.

What about the “lower abdominal pain and lower back pain during menstruation (NRS scores)” value [4, 6] of the same compound?
The value was “trend of decrease; also recorded: effects of alleviating lower abdominal pain and lower back pain were observed”.

And the menstrual blood loss [4, 6]?
The menstrual blood loss was “trend of decrease”.

And the “adverse side effects from taking tranilast” value ([4]; Subject B)?
The value was “no adverse side effects”.

And the menstrual blood loss [4, 7]?
Its menstrual blood loss is “remained high”.

What about the menstrual pain [4, 7] of the same compound?
Its menstrual pain is “less menstrual pain”.

What about the “pain and blood loss sensed by patient” value ([4]; Subject B, December, 100 mg/day) of the same compound?
The value was “reduced pain and blood loss”.

What about the menstrual blood loss [4, 8] of the same compound?
The menstrual blood loss was “Reduction”.

What about the menstrual pain [4, 8] of the same compound?
The menstrual pain was “Reduction”.

What about the duration of menstruation [4, 9] of the same compound?
The duration of menstruation was “decreased significantly”.

And the symptoms of menorrhagia [4, 9]?
The symptoms of menorrhagia was “clearly improved”.

And the “lower abdominal pain and lower back pain during menstruation (NRS scores)” value [4, 10]?
The value was “clearly decrease; also recorded: decrease significantly”.

What about the menstrual blood loss [4, 10] of the same compound?
The menstrual blood loss was “clearly decrease; also recorded: decreased significantly”.

What about the “pain at menstrual period” value ([4]; Subject H, organic dysmenorrhea, 100 mg three times per day orally, roughly one month) of the same compound?
Its value is “Pain diminished”.

What about the need for analgesic ([4]; Subject H, roughly one month after beginning administration) of the same compound?
The need for analgesic was “no longer need to take an analgesic”.

And the “menstrual pain and chronic pelvic pain when not menstruating (interview findings)” value ([4]; Subject I, examination Jun. 4, 2010)?
The value was “diminished and no longer interfered with their job”.

And the “pain at first menstrual period after beginning administration” value ([4]; Subject I, organic dysmenorrhea, 100 mg three times per day orally)?
The value was “the pain diminished”.

And the “analgesic use at first menstrual period after beginning administration” value ([4]; Subject I, before: multiple days with four analgesic tablets per day)?
Its value is “one tablet of analgesic per day for 3 days”.

And the “pain during menstruation, last menstrual period of administration vs menstrual period at start (NRS average and maximum)” value ([4]; Subjects A, B, C, D, E, F and G)?
The value was “prominent decreases”.

And the “interview findings by gynecological specialist on menstrual pain, final visit vs before start” value ([4]; Subjects A, C, D, E and F)?
The value was “menstrual pain diminished”.

What about the “expression level of N-cadherin” value (EM-E6/E7/hTERT cells) of the same compound?
The value was “inhibited the expression”.

And the “expression level of fibronectin” value (EM-E6/E7/hTERT cells)?
The value was “inhibited the expression”.

What about the Cmax [5] of the same compound?
The Cmax was 2200 ng/mL.
